Laboratory results: patent publication US20080145440A1, “Microparticle preparation and medical composition” (priority 2006, published 2008)

Columns and labels:
[1] = test system: Mouse-derived colon cancer (colon-26 adenocarcinoma) cells; assay: In vivo experiment of anticancer treatment; parameters: species or system BALB/c male mouse; conditions: cancer-bearing mice
Protocol: As an experimental animal, a six-week-old BALB/c male mouse (weight 25 g, Shimizu Laboratory Supplies Co., Ltd.) was selected. […] In the experiment, the same agent treatment was performed as in the toxicity experiment. Specifically, the experiment was conducted in the following methods:
Weight changes and survival rate were observed from the day of the administration.

[2] = test system: mouse-derived colon cancer cells (colon-26); assay: In vitro cellular toxicity experiment (CCK-8); format: cell-based; conditions: colon-26, 10 μg/ml, forty eight hour treatment
Protocol: Using mouse-derived colon cancer cells (colon-26), a toxicity of the microparticle to cancer cells was experimented. Specifically, the experiment was conducted according to the following method:
The colon-26 cells were disseminated on a 96 well-plate at 1′104 concentration and cultured for twenty four hours. […] Cellular toxicity was examined by measuring absorbency under 450 nm with a CCK-8 kit (Dojindo, Kumamoto, Japan), the CCK-8 kit measuring formazan substitution of tetrazolium based on an intercellular enzyme.

**Q.** What does the source list for N.N.[Cl][Pt][Cl] [free CDDP, cis-dichlorodiammineplatinum (II)]?
**A.** day of minimum weight after the administration ([1]; 20 mg/kg of CDDP intraperitoneal): fifth day; anticancer effect, concentration difference 5 mg/kg vs 10 mg/kg ([1]; intraperitoneal): no significant difference in the anticancer effect; start of death from cancer after the administration ([1]; intraperitoneal): started to die of cancer after a fortieth day; cytostatic effect [2]: approximately 50%
